Results on six compounds are retold here after patent publication US5858684A, “Method of screening calcium receptor-active molecules” (priority 1995, dated 1999).

In data set [1] the test system is osteoclast calcium receptor. The experiment in a line: increase in [Ca2+]i in indo-1-loaded rat osteoclasts. Type of data set: cell-based. The settings on record: rat osteoclasts, indo-1; inactive = no increase in cytosolic Ca2+ at 1-5 mM; read-out: EC50 OSTEOCLAST (Table 6).
Data set [2] has as its target T1, C-cell calcium receptor (Rattus norvegicus, UniProt P48442).
T1 sequence (P48442 20-1079): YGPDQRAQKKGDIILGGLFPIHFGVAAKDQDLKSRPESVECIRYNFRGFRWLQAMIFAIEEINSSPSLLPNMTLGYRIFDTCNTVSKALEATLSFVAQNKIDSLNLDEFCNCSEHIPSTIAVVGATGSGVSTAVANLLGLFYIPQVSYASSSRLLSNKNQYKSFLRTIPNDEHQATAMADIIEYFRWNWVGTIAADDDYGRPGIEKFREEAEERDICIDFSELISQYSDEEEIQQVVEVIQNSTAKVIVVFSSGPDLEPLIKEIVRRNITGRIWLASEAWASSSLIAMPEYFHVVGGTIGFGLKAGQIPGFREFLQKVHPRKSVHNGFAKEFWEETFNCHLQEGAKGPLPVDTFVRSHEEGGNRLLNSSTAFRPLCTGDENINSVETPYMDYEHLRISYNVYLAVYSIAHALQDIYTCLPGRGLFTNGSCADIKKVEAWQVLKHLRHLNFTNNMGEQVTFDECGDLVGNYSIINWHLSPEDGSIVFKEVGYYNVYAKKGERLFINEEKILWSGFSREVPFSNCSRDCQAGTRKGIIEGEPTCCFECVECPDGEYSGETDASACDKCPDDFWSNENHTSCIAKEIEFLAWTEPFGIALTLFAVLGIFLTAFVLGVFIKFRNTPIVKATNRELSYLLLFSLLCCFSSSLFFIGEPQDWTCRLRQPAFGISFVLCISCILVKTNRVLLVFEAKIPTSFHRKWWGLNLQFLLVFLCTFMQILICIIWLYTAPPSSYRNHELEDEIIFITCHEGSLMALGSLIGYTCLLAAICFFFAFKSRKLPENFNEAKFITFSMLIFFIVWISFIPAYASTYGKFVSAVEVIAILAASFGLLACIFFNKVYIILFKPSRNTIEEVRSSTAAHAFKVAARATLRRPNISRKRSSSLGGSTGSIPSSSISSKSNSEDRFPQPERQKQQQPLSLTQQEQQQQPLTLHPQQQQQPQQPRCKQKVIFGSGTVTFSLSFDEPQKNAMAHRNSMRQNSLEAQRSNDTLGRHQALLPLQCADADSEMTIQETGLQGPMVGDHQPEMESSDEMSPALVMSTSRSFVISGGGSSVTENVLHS
Type of data set: cell-based. The settings on record: rMTC 6-23 cells, fura-2; inactive = no increase in cytosolic Ca2+ at 1-5 mM. Also on record: Neoplastic C-cells derived from a rat medullary thyroid carcinoma (rMTC 6-23); host or cells: rMTC 6-23.
Text: To assess the effects of molecular polycations on C-cells, a neoplastic cell line, derived from a rat medullary thyroid carcinoma (rMTC 6-23 cells) was used.

For data set [3], the target named is T2, calcium receptor expressed from bovine parathyroid cell mRNA in Xenopus oocytes (Bos taurus, UniProt P35384).
T2 sequence (P35384 20-1085): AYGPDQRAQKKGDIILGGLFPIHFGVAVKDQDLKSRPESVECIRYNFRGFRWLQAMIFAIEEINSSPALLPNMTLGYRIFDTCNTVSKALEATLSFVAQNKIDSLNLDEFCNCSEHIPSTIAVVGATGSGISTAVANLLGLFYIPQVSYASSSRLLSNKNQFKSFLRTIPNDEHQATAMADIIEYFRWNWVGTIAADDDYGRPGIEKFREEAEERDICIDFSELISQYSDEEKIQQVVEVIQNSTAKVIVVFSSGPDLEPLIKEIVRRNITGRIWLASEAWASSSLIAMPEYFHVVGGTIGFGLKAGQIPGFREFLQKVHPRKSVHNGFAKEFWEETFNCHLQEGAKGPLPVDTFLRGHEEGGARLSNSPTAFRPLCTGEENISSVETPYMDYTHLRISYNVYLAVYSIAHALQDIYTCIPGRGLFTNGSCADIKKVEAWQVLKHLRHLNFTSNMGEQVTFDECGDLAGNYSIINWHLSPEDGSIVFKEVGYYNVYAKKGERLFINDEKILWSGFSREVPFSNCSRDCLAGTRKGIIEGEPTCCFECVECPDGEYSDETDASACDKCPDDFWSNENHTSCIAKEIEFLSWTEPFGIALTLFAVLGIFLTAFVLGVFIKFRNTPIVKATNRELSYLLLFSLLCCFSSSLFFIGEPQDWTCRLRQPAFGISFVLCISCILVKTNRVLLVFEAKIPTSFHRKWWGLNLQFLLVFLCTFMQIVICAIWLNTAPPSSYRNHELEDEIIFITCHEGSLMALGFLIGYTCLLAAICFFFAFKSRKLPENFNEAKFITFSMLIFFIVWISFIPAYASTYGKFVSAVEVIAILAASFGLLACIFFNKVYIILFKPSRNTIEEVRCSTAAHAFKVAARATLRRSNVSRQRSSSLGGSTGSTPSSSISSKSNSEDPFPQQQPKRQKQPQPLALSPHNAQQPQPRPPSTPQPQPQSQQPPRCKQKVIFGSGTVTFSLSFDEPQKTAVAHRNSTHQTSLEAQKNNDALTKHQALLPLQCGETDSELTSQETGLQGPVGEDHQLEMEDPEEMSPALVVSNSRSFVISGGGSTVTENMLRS
The experiment in a line: Cl- current in Xenopus oocytes injected with bovine parathyroid mRNA. Type of data set: cell-based. The settings on record: for oscillatory increases in Cl- current (words): bovine parathyroid mRNA. The method, then:
Glass capillary tubes (1 mm diameter) were pulled to a fine tip and manually broken to achieve a tip diameter of about 15 μmeters. A droplet of mRNA (1 ng/nl in diethylpyrocarbonate (DEPC)-treated water) was placed onto […]® and drawn into the capillary tube by suction. The capillary tube was then connected to a picospritzer (WPI Instruments) and the volume of the air-pulsed droplets adjusted to deliver 50 ng of mRNA (typically 50 nl). A 35-mm culture dish with a patch of nylon stocking fixed to the bottom was used to secure the oocytes during injection of mRNA into the vegetal pole. The injected oocytes were placed into a 35-mm culture dish containing MBS, 100 μg/ml penicillin and 100 μg/ml streptomycin and incubated at 18° C. for 3 days.
Following incubation, an oocyte was placed into a 100-μl plastic chamber and superfused with MBS at a flow rate of 0.5 ml/min using a peristaltic pump. Test molecules or inorganic polycations were added by rapidly moving the tubing into different buffers. Recording and current-passing electrodes were constructed from thin-wall capillary tubing pulled to a resistance of 1-3 Mohms and filled with 3M KCl. […] Currents were recorded directly onto a strip chart recorder.

Data set [4] relates to PTH secretion from bovine parathyroid cells. The experiment in a line: PTH secretion from bovine parathyroid cells. The settings on record: for inhibition of PTH secretion: bovine parathyroid cells. Type of data set: cell-based.
Experimental: PTH secretion was measured by first suspending cells in PCB containing 0.5 mM CaCl2 and 0.1% BSA.
Data set [5] relates to parathyroid cell calcium receptor. Format: cell-based.
Experimental: For example, bovine parathyroid cells loaded with fura-2 are initially suspended in buffer containing 0.5 mM CaCl2. A test substance is added to the cuvette in a small volume (5-15 μl) and changes in the fluorescence signal are measured. Cumulative increases in the concentration of the test substance are made in the cuvette until some predetermined concentration is achieved or no further changes in fluorescence are noted.
This section describes procedures used to obtain and treat parathyroid cells from calves and humans. […] Human parathyroid glands, were obtained from patients undergoing surgical removal of parathyroid tissue for primary or uremic hyperparathyroidism (uremic HPT), and were treated similarly to bovine tissue.
Glands were trimmed of excess fat and connective tissue and then minced with fine scissors into cubes approximately 2-3 mm on a side. Dissociated parathyroid cells were prepared by collagenase digestion and then purified by centrifugation in Percoll buffer. The resultant parathyroid cell preparation was essentially devoid of red blood cells, adipocytes, and capillary tissue as assessed by phase contrast microscopy and Sudan black B staining. Dissociated and purified parathyroid cells were present as small clusters containing 5 to 20 cells.
(§1) The cells were then pelleted, resuspended in the same buffer, but lacking the ester, and incubated a further 15 minutes at 37° C. The cells were subsequently washed twice with PCB containing 0.5 mM CaCl2 and 0.5% BSA and maintained at room temperature (about 20° C.). Immediately before use, the cells were diluted five-fold with prewarmed 0.5 mM CaCl2 -PCB to obtain a final BSA concentration of 0.1%. The concentration of cells in the cuvette used for fluorescence recording was 1-2×10^6 /ml.
(§2) The fluorescence of indicator-loaded cells was measured at 37° C. in a spectrofluorimeter (Biomedical Instrumentation Group, University of Pennsylvania, Philadelphia, Pa.) equipped with a thermostated cuvette holder and magnetic stirrer using excitation and emission wavelengths of 340 and 510 nm, respectively. […] Leakage of dye is dependent on temperature and most occurs within the first 2 minutes after warming the cells in the cuvette. Dye leakage increases only very slowly thereafter. To correct the calibration for dye leakage, cells were placed in the cuvette and stirred at 37° C. for 2-3 minutes. The cell suspension was then removed, the cells pelleted, and the supernatant returned to a clean cuvette. […] This estimate was subtracted from the apparent Fmin.
Dissociated bovine parathyroid cells were purified on gradients of Percoll and cultured overnight in serum-free medium.
Data set [6] concerns inositol phosphate formation in bovine parathyroid cells. Put plainly: inositol phosphate formation in bovine parathyroid cells. Format: cell-based. The method, then:
After 30 seconds, the reaction was terminated by the addition of CHCl3 :MeOH:HCl and IP1 (circles) and IP3 (triangles) separated by anion exchange chromatography. Each point is the mean of 2 experiments, each performed in triplicate.
This section describes procedures measuring inositol phosphate formation. Membrane phospholipids were labeled by incubating parathyroid cells with 4 μCi/ml ^3 H-myo-inositol for 20-24 hours. Cells were then washed and resuspended in PCB containing 0.5 mM CaCl2 and 0.1% BSA. Incubations were performed in microfuge tubes in the absence or presence of various concentrations of organic polycation for different times. Reactions were terminated by the addition of 1 ml chloroform-methanol-12N HCl (200:100:1; v/v/v). Aqueous phytic acid hydrolysate (200 μl; 25 μg phosphate/tube). The tubes were centrifuged and 600 μl of the aqueous phase was diluted into 10 ml water.
Inositol phosphates were separated by ion-exchange chromatography using AG1-X8 in either the chloride- or formate-form. When only IP3 levels were to be determined, the chloride-form was used, whereas the formate form was used to resolve the major inositol phosphates (IP3, IP2, and IP1). For determination of just IP3, the diluted sample was applied to the chloride-form column and the column was washed with 10 ml 30 mM HCl followed by 6 ml 90 mM HCl and the IP3 was eluted with 3 ml 500 mM HCl. The last eluate was diluted and counted. For determination of all major inositol phosphates, the diluted sample was applied to the formate-form column and IP1, IP2, and IP3 eluted sequentially by increasing concentrations of formate buffer. The eluted samples from the formate columns were rotary evaporated, the residues brought up in cocktail, and counted.

The conditions of data set [7]: cited from earlier work.
Data set [8] concerns the target T3, human parathyroid cells (calcium receptor) (Homo sapiens, UniProt P41180).
T3 sequence (P41180 20-1078): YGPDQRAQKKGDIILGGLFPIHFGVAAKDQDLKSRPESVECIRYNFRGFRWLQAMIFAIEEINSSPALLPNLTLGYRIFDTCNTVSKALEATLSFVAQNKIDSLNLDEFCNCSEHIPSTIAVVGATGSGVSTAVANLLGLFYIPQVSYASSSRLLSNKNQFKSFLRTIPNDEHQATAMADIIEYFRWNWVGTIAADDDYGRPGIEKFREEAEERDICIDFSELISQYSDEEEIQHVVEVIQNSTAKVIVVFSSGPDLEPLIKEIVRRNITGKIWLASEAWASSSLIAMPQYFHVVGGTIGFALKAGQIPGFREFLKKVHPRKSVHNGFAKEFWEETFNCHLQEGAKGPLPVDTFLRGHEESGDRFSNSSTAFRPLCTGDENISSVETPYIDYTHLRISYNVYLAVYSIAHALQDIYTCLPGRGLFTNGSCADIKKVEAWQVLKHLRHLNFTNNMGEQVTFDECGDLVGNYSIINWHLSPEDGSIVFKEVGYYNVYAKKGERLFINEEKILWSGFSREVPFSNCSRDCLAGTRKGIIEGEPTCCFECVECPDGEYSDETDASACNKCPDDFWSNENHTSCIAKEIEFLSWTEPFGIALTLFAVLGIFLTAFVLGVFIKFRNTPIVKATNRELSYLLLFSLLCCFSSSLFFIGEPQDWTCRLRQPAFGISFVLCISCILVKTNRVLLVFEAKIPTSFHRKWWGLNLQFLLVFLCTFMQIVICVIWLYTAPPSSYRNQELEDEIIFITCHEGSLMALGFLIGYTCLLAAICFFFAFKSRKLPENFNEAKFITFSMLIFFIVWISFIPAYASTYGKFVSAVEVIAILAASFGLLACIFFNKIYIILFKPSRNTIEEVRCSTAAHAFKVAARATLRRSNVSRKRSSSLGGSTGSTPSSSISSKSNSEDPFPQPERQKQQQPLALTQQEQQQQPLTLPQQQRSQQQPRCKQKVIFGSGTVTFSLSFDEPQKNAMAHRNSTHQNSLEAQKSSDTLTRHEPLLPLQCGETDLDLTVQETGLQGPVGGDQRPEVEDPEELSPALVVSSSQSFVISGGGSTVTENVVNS
Format: cell-based. The settings on record: 1 μM.
Experimental: Human parathyroid glands, were obtained from patients undergoing surgical removal of parathyroid tissue for primary or uremic hyperparathyroidism (uremic HPT), and were treated similarly to bovine tissue.
as §1, §2

The test system of data set [9] is cyclic AMP formation in bovine parathyroid cells. Format: cell-based.
Experimental: Cells were incubated as above for PTH secretion studies and at the end of the incubation, a 0.15-ml sample was taken and transferred to 0.85 ml of hot (70° C.) water and heated at this temperature for 5-10 minutes. The tubes were subsequently frozen and thawed several times and the cellular debris sedimented by centrifugation. Portions of the supernatant were acetylated and cyclic AMP concentrations determined by radioimmunoassay.
Each value is the mean±SEM of three experiments.
The nature of data set [10]: net positive charge. Type of data set: physicochemical.

Entries after “also recorded” stand apart in the source; their conditions may differ. Some results are limits rather than exact numbers.

The term EC50 denotes the midpoint of the concentration-response curve. On to `CC(NCCC(c1ccccc1)c1ccccc1)c1ccccc1` (racemic) [Fendiline, diphenylpropyl-α-phenethylamine], for which the results for the EC50 in data set [1] and in [2] were 200 µM and greater than 100 µM, respectively. Moreover, in data set [3], the “concentration eliciting oscillatory increases in Cl- current” value was 100 µM. Moreover, the results for the “oscillatory increases in Cl- current (words)” value in data set [3] and in data set [3] (listed as fendiline) were “evokes the mobilization of intracellular” and “evokes oscillatory increases”, respectively.

For the compound `CCCCCCCCCCCCCC(=O)O[C@@H]1[C@@H](C)[C@@]2(O)[C@@H](C=C(CO)C[C@]3(O)C(=O)C(C)=C[C@@H]23)[C@@H]2C(C)(C)[C@]12OC(C)=O` [PMA, phorbol myristate acetate], the “shift of concentration-response curve for PTH secretion” value in data set [4] (100 nM PMA) is given as “shifts to the right”. Besides, the “shift of concentration-response curve for [Ca2+]i” value in data set [5] (100 nM PMA) is given as “shifts to the right”. For the same compound, in [6] (100 nM PMA, 5 minutes), the “IP1 formation evoked by extracellular Ca2+ or spermine” value is given as “depresses the formation of IP1”.

For `NCCCNCCCCNCCCN` [Spermine, spermine], the “inhibition of PTH secretion” value in data set [4] was “inhibits PTH secretion; also recorded: inhibited PTH secretion to the same extent”.

As to `NCCCC[C@H](N)C(=O)O` [lysine], the “interaction with phospholipid vesicles” value in data set [7] is “not interacting to a significant extent”.

`COCCOC(=O)C1=C(C)NC(C)=C(C(=O)OC(C)C)C1c1cccc([N+](=O)[O-])c1` (centres unmarked) [nimodipine]: the “effect on Mg2+-elicited sustained [Ca2+]i increase” value in data set [8] is “not affected”.

In the case of protamine, the “inhibition of PTH secretion” value in [4] is listed as “inhibit PTH secretion; also recorded: inhibited PTH secretion to the same extent”. Besides, the “isoproterenol-induced cyclic AMP” value in data set [9] is given as “depressed isoproterenol-induced increases”. Moreover, the “increase in [Ca2+]i / mobilization of intracellular Ca2+” value in [5] was “evoked rapid and transient increases”. Moreover, in [6], the “formation of inositol phosphates” value was “increases the formation of inositol phosphates” and the “onset of increase in IP3 formation” value is no more than 30 s. For the same compound, the “net positive charge” value in [10] is “+21”.
